Assay results reported in article PMC7316994, “In Vitro Pharmacological Profile of a New Small Molecule Bradykinin B2 Receptor Antagonist” (Frontiers in Pharmacology, 2020).
Where two headings read alike, the source gives them in different places.

Experiments:
COX2 = target: T1, COX2 (Homo sapiens, UniProt P35354); experiment: enzyme assay (Table S2); format: biochemical; conditions: Arachidonic acid (2 µM) + ADHP, Fluorimetry
T1 construct: Eurofins (assay provider); host or cells: Sf9 cells

[1] = test system: Glutamate ionotropic, NMDA; experiment: radioligand binding (Table S2); conditions: [3H] CGP 39653, Rat cerebral cortex
Neurokinin NK3 = target: T2, Neurokinin NK3 (Homo sapiens, UniProt P29371); experiment: functional assay, intracellular [Ca2+], CHO cells (Table S2); format: cell-based
T2 construct: host or cells: CHO cells
T2 sequence (P29371 1-465): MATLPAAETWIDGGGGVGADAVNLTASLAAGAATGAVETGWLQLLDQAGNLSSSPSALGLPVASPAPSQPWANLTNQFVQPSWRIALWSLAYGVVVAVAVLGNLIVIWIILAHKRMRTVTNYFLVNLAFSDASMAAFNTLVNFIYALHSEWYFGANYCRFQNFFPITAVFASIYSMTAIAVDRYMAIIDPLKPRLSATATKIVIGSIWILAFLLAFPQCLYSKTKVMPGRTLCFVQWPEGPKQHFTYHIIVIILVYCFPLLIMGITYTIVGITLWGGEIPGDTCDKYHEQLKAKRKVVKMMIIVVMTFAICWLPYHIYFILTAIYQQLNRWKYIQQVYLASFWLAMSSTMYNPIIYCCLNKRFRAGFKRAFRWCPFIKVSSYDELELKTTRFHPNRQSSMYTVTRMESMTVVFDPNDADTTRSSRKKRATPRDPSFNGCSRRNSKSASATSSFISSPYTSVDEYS

Galanin GAL2 = target: T3, Galanin GAL2 (Homo sapiens, UniProt O43603); experiment: radioligand binding (Table S2); conditions: [125I] Galanin, Human recombinant CHO cells
T3 construct: host or cells: CHO cells
T3 sequence (O43603 whole entry): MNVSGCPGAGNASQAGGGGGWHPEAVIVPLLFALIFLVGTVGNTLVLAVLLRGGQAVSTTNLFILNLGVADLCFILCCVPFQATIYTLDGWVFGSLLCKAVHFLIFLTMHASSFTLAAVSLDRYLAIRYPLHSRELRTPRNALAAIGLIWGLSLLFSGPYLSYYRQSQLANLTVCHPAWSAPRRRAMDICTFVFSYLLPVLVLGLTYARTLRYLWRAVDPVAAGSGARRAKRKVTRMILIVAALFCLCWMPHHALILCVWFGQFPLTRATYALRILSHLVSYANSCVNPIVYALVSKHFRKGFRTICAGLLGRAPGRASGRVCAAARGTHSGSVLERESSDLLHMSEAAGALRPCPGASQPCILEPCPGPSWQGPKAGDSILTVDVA

Cannabinoid CB1 = Cannabinoid CB1 (Homo sapiens, UniProt P21554); experiment: radioligand binding (Table S2); conditions: read-out: % Inhibition @ 10 µM
Cannabinoid CB1, sequence (P21554 whole entry): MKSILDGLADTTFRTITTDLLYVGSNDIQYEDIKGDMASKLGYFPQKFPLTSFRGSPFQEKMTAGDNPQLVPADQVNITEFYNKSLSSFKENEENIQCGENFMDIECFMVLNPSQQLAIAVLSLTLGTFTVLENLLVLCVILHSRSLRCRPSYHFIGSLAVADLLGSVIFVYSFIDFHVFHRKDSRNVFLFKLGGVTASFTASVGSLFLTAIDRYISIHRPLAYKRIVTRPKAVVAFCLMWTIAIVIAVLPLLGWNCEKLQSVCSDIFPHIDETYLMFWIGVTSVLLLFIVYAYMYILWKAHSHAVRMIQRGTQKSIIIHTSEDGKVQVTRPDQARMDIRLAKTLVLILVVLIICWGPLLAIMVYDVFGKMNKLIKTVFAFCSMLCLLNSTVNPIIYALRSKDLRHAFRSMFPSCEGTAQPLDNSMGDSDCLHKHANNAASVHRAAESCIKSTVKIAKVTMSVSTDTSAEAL

[2] = target: T4, Cysteinyl leukotriene receptor CysLT1 (Homo sapiens, UniProt Q9Y271); experiment: radioligand binding (Table S2); conditions: [3H] LTD4, Human recombinant CHO cells
T4 construct: host or cells: CHO cells

Neurotensin NT1 = Neurotensin NT1 (Homo sapiens, UniProt P30989); experiment: radioligand binding (Table S2); conditions: [125I] Neurotensin, Human recombinant HEK-293 cells
Neurotensin NT1, sequence (P30989 whole entry): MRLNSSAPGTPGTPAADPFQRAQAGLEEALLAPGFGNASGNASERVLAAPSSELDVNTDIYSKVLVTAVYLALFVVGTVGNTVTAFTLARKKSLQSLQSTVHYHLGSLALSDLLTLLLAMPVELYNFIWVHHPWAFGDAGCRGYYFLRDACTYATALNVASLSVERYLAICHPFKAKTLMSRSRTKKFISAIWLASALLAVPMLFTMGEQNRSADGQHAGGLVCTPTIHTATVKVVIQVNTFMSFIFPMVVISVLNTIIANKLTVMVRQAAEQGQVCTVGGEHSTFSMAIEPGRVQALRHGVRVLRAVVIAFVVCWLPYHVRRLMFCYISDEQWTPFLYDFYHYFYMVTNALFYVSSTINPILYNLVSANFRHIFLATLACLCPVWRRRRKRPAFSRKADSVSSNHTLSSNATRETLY

Somatostatin sst2 = Somatostatin sst2 (Homo sapiens, UniProt P30874); experiment: radioligand binding (Table S2); conditions: [125I] Tyr11-Somatostatin 14, Human recombinant CHO-K1 cells
Somatostatin sst2, sequence (P30874 whole entry): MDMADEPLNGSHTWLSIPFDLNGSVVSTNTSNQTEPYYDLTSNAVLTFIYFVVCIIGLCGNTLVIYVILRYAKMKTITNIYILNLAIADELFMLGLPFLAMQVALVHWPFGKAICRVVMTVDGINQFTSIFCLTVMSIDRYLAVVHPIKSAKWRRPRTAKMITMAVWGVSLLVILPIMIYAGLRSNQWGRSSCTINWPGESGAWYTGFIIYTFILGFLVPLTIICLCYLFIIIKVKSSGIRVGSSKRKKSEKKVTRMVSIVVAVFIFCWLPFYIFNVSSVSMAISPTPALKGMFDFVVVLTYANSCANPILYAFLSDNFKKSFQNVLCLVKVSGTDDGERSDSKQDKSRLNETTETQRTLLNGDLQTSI

B2 receptor = target: T5, B2 receptor (Homo sapiens, UniProt P30411); experiment: Ca^2+ mobilization assay, transfected CHO cells; format: cell-based; design: host or cells: CHO cells; conditions: inhibition of response to 0.03 nM BK
T5 sequence (P30411 1-391): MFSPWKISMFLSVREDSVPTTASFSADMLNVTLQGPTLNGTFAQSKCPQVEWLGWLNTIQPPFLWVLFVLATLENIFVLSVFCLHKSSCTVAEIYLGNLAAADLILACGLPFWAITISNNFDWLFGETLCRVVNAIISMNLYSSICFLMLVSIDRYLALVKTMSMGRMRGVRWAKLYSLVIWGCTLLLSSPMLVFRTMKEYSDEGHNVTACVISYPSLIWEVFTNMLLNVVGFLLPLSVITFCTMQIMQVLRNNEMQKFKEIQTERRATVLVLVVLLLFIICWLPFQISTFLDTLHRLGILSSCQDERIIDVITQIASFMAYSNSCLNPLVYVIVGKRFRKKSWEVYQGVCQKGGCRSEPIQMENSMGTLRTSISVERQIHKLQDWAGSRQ

[3] = test system: Glycine, strychnine-sensitive; experiment: radioligand binding (Table S2); conditions: [3H] Strychnine, Wistar rat spinal cord
Opioid µ (MOP) = target: T6, Opioid µ (MOP) (Homo sapiens, UniProt P35372); experiment: radioligand binding (Table S2); conditions: [3H] DAMGO, Human recombinant HEK-293 cells
T6 construct: host or cells: HEK-293 cells
T6 sequence (P35372 whole entry): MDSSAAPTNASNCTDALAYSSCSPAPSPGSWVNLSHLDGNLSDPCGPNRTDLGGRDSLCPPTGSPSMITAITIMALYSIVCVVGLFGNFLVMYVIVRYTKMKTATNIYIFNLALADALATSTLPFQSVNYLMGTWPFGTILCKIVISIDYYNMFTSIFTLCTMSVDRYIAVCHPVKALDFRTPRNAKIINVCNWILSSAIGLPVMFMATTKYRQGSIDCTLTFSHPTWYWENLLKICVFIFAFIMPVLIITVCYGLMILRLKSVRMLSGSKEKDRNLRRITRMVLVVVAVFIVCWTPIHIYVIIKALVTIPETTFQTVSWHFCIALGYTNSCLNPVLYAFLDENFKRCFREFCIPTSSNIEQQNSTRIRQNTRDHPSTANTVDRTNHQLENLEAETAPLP

[4] = target: T7, Norepinephrine transporter (Homo sapiens, UniProt P23975); experiment: radioligand binding (Table S2); conditions: [3H] Nisoxetine, Human recombinant CHO cells
T7 construct: host or cells: CHO cells
T7 sequence (P23975 whole entry): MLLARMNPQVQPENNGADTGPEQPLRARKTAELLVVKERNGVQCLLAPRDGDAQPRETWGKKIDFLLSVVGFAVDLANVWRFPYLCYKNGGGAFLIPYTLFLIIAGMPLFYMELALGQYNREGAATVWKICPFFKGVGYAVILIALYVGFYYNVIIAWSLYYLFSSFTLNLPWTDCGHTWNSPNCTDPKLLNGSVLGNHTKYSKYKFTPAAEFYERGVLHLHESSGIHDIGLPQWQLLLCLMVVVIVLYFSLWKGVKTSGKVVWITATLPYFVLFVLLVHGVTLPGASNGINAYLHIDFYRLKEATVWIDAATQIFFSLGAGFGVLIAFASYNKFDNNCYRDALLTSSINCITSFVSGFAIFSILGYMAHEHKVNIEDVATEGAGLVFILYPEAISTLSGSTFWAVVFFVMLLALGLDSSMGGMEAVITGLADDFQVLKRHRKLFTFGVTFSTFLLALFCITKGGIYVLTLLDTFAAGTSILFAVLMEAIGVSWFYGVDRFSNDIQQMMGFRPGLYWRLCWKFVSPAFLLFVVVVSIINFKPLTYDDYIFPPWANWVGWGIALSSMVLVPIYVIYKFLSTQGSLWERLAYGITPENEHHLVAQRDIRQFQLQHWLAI

Chemokine CCR2B = target: T8, Chemokine CCR2B (Homo sapiens, UniProt P41597); experiment: radioligand binding (Table S2); conditions: [125I] MCP-1, Human recombinant CHO-K1 cells
T8 construct: host or cells: CHO-K1 cells
T8 sequence (P41597 1-360 isoform P41597-2): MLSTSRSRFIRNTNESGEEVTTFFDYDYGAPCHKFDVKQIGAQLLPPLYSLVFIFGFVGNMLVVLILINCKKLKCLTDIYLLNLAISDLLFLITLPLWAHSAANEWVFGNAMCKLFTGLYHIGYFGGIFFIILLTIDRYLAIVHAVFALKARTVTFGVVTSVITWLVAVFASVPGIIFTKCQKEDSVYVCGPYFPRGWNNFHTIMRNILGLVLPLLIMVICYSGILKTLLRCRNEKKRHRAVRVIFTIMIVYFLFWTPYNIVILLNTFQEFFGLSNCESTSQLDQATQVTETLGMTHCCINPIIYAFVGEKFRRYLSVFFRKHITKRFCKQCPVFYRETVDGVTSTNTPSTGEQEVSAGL

TP (TXA2/PGH2) = target: T9, TP (TXA2/PGH2) (Homo sapiens, UniProt P21731); experiment: functional assay, intracellular [Ca2+], HEK-293 cells (Table S2); format: cell-based; conditions: for inhibition at 10 µM: HEK293, read-out: % inhibition of reference agonist response @ 10 µM (antagonist effect), 10 µM, U 44069 (10 nM)
T9 construct: expressed in transfected cells; host or cells: HEK-293 cells
T9 sequence (P21731 1-343): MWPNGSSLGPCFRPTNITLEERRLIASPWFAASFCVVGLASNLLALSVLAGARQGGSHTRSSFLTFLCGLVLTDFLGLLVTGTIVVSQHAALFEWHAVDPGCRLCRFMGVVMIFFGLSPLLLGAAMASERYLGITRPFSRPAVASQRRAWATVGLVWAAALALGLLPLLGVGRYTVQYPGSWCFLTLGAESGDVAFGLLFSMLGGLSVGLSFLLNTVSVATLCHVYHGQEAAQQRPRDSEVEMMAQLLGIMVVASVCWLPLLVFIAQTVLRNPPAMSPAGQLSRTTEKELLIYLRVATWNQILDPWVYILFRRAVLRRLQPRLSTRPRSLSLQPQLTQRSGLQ

[5] = target: T10, Platelet-activating factor PAF (Homo sapiens, UniProt P25105); experiment: radioligand binding (Table S2); conditions: [3H] C16-PAF, Human recombinant CHO cells
T10 construct: host or cells: CHO cells
T10 sequence (P25105 whole entry): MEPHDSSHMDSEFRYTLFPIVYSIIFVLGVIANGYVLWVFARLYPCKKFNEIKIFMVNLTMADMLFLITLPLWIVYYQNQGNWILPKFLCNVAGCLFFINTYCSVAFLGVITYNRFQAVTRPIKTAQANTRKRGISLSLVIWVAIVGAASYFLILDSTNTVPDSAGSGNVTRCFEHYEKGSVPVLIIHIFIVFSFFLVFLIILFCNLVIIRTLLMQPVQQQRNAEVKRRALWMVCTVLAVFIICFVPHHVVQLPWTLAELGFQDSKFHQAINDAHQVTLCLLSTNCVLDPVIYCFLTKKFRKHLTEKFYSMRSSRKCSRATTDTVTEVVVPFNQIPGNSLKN

Chemokine CCR1 = target: T11, Chemokine CCR1 (Homo sapiens, UniProt P32246); experiment: radioligand binding (Table S2); conditions: [125I] MIP-1α, Human recombinant HEK-293 cells
T11 construct: host or cells: HEK-293 cells
T11 sequence (P32246 whole entry): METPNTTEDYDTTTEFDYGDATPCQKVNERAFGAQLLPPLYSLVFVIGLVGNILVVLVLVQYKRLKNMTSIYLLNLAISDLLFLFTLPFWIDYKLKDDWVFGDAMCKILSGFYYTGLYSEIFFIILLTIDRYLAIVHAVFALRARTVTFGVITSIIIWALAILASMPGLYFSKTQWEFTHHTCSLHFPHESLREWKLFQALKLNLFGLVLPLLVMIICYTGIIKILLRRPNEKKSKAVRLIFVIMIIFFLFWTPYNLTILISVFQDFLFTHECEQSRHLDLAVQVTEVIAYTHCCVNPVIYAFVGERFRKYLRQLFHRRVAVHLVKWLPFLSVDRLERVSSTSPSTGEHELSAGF

Thyroid hormone = experiment: radioligand binding (Table S2); conditions: [125I] Triiodothyronine, Rat liver
C5a = target: T12, C5a (Homo sapiens, UniProt P21730); experiment: functional assay, cAMP HTRF, HEK-293 cells (Table S2); format: cell-based
T12 construct: expressed in transfected cells; host or cells: HEK-293 cells
T12 sequence (P21730 whole entry): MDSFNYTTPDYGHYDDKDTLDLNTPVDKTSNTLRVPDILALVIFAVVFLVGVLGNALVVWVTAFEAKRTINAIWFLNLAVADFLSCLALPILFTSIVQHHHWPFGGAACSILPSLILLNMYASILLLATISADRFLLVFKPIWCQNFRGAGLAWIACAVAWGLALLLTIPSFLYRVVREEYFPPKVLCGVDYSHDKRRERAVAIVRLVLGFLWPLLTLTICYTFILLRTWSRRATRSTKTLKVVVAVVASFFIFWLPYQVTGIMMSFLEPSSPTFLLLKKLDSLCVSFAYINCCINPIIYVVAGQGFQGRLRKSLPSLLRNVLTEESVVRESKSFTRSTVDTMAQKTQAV

Histamine H1 = target: T13, Histamine H1 (Homo sapiens, UniProt P35367); experiment: radioligand binding (Table S2); conditions: [3H] Pyrilamine, Human recombinant HEK-293 cells
T13 construct: host or cells: HEK-293 cells

T1 sequence (P35354 18-604): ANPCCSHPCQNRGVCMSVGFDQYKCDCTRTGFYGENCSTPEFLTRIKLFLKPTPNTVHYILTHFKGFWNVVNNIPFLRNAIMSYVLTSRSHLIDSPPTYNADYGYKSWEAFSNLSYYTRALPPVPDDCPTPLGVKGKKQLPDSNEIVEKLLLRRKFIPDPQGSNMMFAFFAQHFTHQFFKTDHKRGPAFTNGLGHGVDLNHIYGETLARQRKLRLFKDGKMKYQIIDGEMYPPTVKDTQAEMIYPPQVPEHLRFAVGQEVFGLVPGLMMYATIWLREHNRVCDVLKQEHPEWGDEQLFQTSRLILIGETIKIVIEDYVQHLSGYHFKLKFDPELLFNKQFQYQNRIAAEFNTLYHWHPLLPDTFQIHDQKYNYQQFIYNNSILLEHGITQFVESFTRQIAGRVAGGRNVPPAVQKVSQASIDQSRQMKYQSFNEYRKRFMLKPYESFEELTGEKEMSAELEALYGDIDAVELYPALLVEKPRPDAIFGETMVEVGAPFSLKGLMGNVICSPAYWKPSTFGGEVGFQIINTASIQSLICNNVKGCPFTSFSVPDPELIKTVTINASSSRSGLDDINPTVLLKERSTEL

In the case of `Cc1cc(-c2ncnn2C)c2cccc(OCc3c(Cl)cc(F)cc3[C@H](C)NC(=O)COC(F)F)c2n1` [Compound 3, (S)-N-(1-(3-chloro-5-fluoro-2-((2-methyl-4-(1-methyl-1H-1,2,4-triazol-5-yl)quinolin-8-yloxy)methyl)phenyl)ethyl)-2-(difluoromethoxy)acetamide], the inhibition at 10 µM (COX2) is reported as -18.8%, the “% Inhibition @ 10 µM” value [1] is reported as 5.1% and the “% of reference agonist response @ 10 µM (agonist effect)” value (shortened to “% of reference agonist response @ 10 µM”) (Neurokinin NK3; 10 µM, reference [MePhe7]-NKB (30 nM)) is reported as 7.0%. It also gave an inhibition at 10 µM (Neurokinin NK3; CHO, read-out: % inhibition of reference agonist response @ 10 µM (antagonist effect), 10 µM, [MePhe7]-NKB (1 nM)) of 40.8%, an IC50 (Neurokinin NK3; [MePhe7]-NKB (1 nM), read-out: IC50 (µM), functional antagonism) of 17 µM and a Kb (Neurokinin NK3; [MePhe7]-NKB (1 nM), read-out: Kb (µM), functional antagonism) of 1.6 µM. It also gave an inhibition at 10 µM (Galanin GAL2) of 6.2%, an inhibition at 10 µM (Cannabinoid CB1) of -3% and an inhibition at 10 µM [2] of -2.2%. It also gave an inhibition at 10 µM (Neurotensin NT1) of 4%, an inhibition at 10 µM (Somatostatin sst2) of -7% and an IC50 (B2 receptor; arithmetic mean, read-out: IC50 (nM) Mean) of 2.13 nM. It also gave a Kb (B2 receptor; arithmetic mean, read-out: Kb (nM) Mean) of 0.24 nM, an IC50 (B2 receptor; geometric mean, read-out: IC50 (nM) Geometric mean) of 2.13 nM and a Kb (B2 receptor; geometric mean, read-out: Kb (nM) Geometric mean) of 0.24 nM. For the same molecule, the “% Inhibition @ 10 µM” value [3] was -1%, the inhibition at 10 µM (Opioid µ (MOP)) was 13.6% and the inhibition at 10 µM [4] was 0.9%. For the same molecule, the inhibition at 10 µM (Chemokine CCR2B) was 1%, the IC50 (TP (TXA2/PGH2)) was 3600 nM and the Kb (TP (TXA2/PGH2)) was 510 nM. For the same molecule, the “% of reference agonist response @ 10 µM” value (TP (TXA2/PGH2); 10 µM, reference U 44069 (0.3 µM)) was -2.8%, the inhibition at 10 µM (TP (TXA2/PGH2); first entry of Table S2, single concentration) was 62.3% and the inhibition at 10 µM (TP (TXA2/PGH2); second entry of Table S2, with IC50 and KB) was 55.1%. The inhibition at 10 µM [5] was 25%, the inhibition at 10 µM (Chemokine CCR1) was -9.6% and the “% Inhibition @ 10 µM” value (Thyroid hormone) was 6.4%. The inhibition at 10 µM (C5a; HEK293, read-out: % inhibition of reference agonist response @ 10 µM (antagonist effect), hC5a (10 nM)) was -0.2%, the “% of reference agonist response @ 10 µM” value (C5a; reference hC5a (100 nM)) was -18.1% and the inhibition at 10 µM (Histamine H1) was 2.5%.
